Laboratory results: patent US20100016232A1, “Treatment Of Inflammatory Diseases With Mammal Beta Defensins” (Novozymes A/S, priority 2008, published 2010)
Where no end group is shown, it is not given here.

Columns and labels:
Type in all cases: cell-based
[1] = system: TNF production from human peripheral blood mononuclear cells (PBMC); assay: TNF production from human PBMC, Cytometric Bead Array
Description: (§1) Peripheral blood was drawn from healthy volunteers (with approval from the relevant ethical committee in Denmark). Heparinized blood was diluted 1/1 v/v with RPMI and were subjected to Ficoll density centrifugation within 2 h of drawing. Plasma was collected from the top from individual donors and was kept on ice until it was used at 2% in the culture medium (autologous culture medium). Isolated PBMC were resuspended in autologous culture medium and seeded in 96-well culture plates with 255.000 cells per well in a total of 200 μl. […] The concentrations used for stimulation were optimized on 3 different donors in initial experiments, for LPS two different concentrations were used to be sure to be on a cytokine level that is possible to modulate. In some experiments PBMC were treated with Dexamethason and Indomethacin alone and together with LPS or LTA as a control on downregulation of inflammatory cytokines. The supernatants were collected after incubation at 37° C. for 24 hours, and stored at −80° C. until cytokine measurement. Viability was measured by Alamar Blue (Biosource, DALL 1100) in all experiments and in some cases also by MTS (Promega) according to manufacturer's instruction and was in some experiments also judged by counting of the cells by a Nucleocounter.
(§2) Cytokine production in supernatants was measured by flow cytometry with a human inflammation cytometric bead array (CBA) according to manufacturer's instructions (BD) on a FACSarray flow cytometer. The following cytokines were measured: IL-8, IL-1β, IL-10, TNF, IL-12 p70, IL-6. In some experiments, cytokines were measured by ELISA kits from R&D systems (IL-10, TNF-α, IL-1β) according to the manufacturer' instruction.

[2] = system: IL-1β production from human peripheral blood mononuclear cells (PBMC); assay: IL-1β production from human PBMC, Cytometric Bead Array
Description: as §1, §2

[3] = system: IL-10 production from human peripheral blood mononuclear cells (PBMC); assay: IL-10 production from human PBMC, Cytometric Bead Array
Description: as §1, §2

[4] = LPS 0.6 ng/ml, test compound 1 μg/ml, Table 16
[5] = LPS 0.6 ng/ml, test compound 10 μg/ml, Table 16
[6] = LPS 0.6 ng/ml, test compound 40 μg/ml, Table 16
[7] = LPS 20 ng/ml, test compound 1 μg/ml, Table 16
[8] = LPS 20 ng/ml, test compound 10 μg/ml, Table 16
[9] = LPS 20 ng/ml, test compound 40 μg/ml, Table 16
[10] = LPS 0.6 ng/ml, test compound 1 μg/ml, Table 18
[11] = LPS 0.6 ng/ml, test compound 10 μg/ml, Table 18
[12] = LPS 0.6 ng/ml, test compound 40 μg/ml, Table 18
[13] = LPS 20 ng/ml, test compound 1 μg/ml, Table 18
[14] = LPS 20 ng/ml, test compound 10 μg/ml, Table 18
[15] = LPS 20 ng/ml, test compound 40 μg/ml, Table 18
[16] = LPS 0.6 ng/ml, test compound 1 μg/ml, Table 17
[17] = LPS 0.6 ng/ml, test compound 10 μg/ml, Table 17
[18] = LPS 0.6 ng/ml, test compound 40 μg/ml, Table 17
[19] = LPS 20 ng/ml, test compound 1 μg/ml, Table 17
[20] = LPS 20 ng/ml, test compound 10 μg/ml, Table 17
[21] = LPS 20 ng/ml, test compound 40 μg/ml, Table 17

In the case of COc1ccc2c(c1)c(CC(=O)O)c(C)n2C(=O)c1ccc(Cl)cc1 [Indomethacin, reference compound], the TNF ([1]; LPS 0.6 ng/ml, Indomethacin 0.72 ug/ml, Table 11) is reported as […], the TNF ([1]; LPS 0.6 ng/ml, Indomethacin 7.2 ug/ml, Table 11) is reported as […] and the TNF ([1]; LPS 20 ng/ml, Indomethacin 0.72 ug/ml, Table 11) is reported as […]. For the same molecule, the TNF ([1]; LPS 20 ng/ml, Indomethacin 7.2 ug/ml, Table 11) was […], the TNF ([1]; LTA 1.25 μg/ml, Indomethacin 0.72 ug/ml, Table 11) was […] and the TNF ([1]; LTA 1.25 μg/ml, Indomethacin 7.2 ug/ml, Table 11) was […]. The TNF ([1]; Medium, Indomethacin 0.72 ug/ml, Table 11) was […], the TNF ([1]; Medium, Indomethacin 7.2 ug/ml, Table 11) was […] and the IL-1β ([2]; LPS 0.6 ng/ml, Indomethacin 0.72 ug/ml, Table 13) was 3100 pg/mL. The IL-1β ([2]; LPS 0.6 ng/ml, Indomethacin 7.2 ug/ml, Table 13) was 4100 pg/mL, the IL-1β ([2]; LPS 20 ng/ml, Indomethacin 0.72 ug/ml, Table 13) was 6460 pg/mL and the IL-1β ([2]; LPS 20 ng/ml, Indomethacin 7.2 ug/ml, Table 13) was 6120 pg/mL. For the same molecule, the IL-1β ([2]; LTA 1.25 μg/ml, Indomethacin 0.72 ug/ml, Table 13) was 7530 pg/mL, the IL-1β ([2]; LTA 1.25 μg/ml, Indomethacin 7.2 ug/ml, Table 13) was 8910 pg/mL and the IL-1β ([2]; Medium, Indomethacin 0.72 ug/ml, Table 13) was 10 pg/mL. The IL-1β ([2]; Medium, Indomethacin 7.2 ug/ml, Table 13) was 40 pg/mL, the IL-10 ([3]; LPS 0.6 ng/ml, Indomethacin 0.72 ug/ml, Table 12) was 37.3 pg/mL and the IL-10 ([3]; LPS 0.6 ng/ml, Indomethacin 7.2 ug/ml, Table 12) was 45.7 pg/mL. For the same molecule, the IL-10 ([3]; LPS 20 ng/ml, Indomethacin 0.72 ug/ml, Table 12) was 108.0 pg/mL, the IL-10 ([3]; LPS 20 ng/ml, Indomethacin 7.2 ug/ml, Table 12) was 77.9 pg/mL and the IL-10 ([3]; LTA 1.25 μg/ml, Indomethacin 0.72 ug/ml, Table 12) was 84.9 pg/mL. The IL-10 ([3]; LTA 1.25 μg/ml, Indomethacin 7.2 ug/ml, Table 12) was 90.4 pg/mL, the IL-10 ([3]; Medium, Indomethacin 0.72 ug/ml, Table 12) was 0.0 pg/mL and the IL-10 ([3]; Medium, Indomethacin 7.2 ug/ml, Table 12) was 0.0 pg/mL.
In the case of “hBD1: human beta defensin 1, SEQ ID NO:1; prepared using chemical synthesis, Peptide Institute Inc. (DHYNCVSSGGQCLYSACPIFTKIQGTCYRGKAKCCK; ends and bridges not checked; cysteine pairing not given here; listed as Homo sapiens)”, the TNF [1, 4] is reported as 474 pg/mL, the “TNF % of control” value [1, 4] is reported as 65% and the TNF [1, 5] is reported as 203 pg/mL. For the same molecule, the “TNF % of control” value [1, 5] was 28%, the TNF [1, 6] was 91 pg/mL and the “TNF % of control” value [1, 6] was 13%. For the same molecule, the TNF [1, 7] was 1395 pg/mL, the “TNF % of control” value [1, 7] was 64% and the TNF [1, 8] was 1311 pg/mL. For the same molecule, the “TNF % of control” value [1, 8] was 61%, the TNF [1, 9] was 999 pg/mL and the “TNF % of control” value [1, 9] was 46%. For the same molecule, the TNF ([1]; Medium, test compound 1 μg/ml, Table 16) was 1 pg/mL, the TNF ([1]; Medium, test compound 10 μg/ml, Table 16) was 0 pg/mL and the TNF ([1]; Medium, test compound 40 μg/ml, Table 16) was 0 pg/mL. For the same molecule, the IL-1β [2, 10] was 512 pg/mL, the “IL-1β % of control” value [2, 10] was 69% and the IL-1β [2, 11] was 401 pg/mL. The “IL-1β % of control” value [2, 11] was 54%, the IL-1β [2, 12] was 302 pg/mL and the “IL-1β % of control” value [2, 12] was 41%. For the same molecule, the IL-1β [2, 13] was 2087 pg/mL, the “IL-1β % of control” value [2, 13] was 82% and the IL-1β [2, 14] was 1913 pg/mL. For the same molecule, the “IL-1β % of control” value [2, 14] was 75%, the IL-1β [2, 15] was 1599 pg/mL and the “IL-1β % of control” value [2, 15] was 63%. The IL-1β ([2]; Medium, test compound 1 μg/ml, Table 18) was 0 pg/mL, the IL-1β ([2]; Medium, test compound 10 μg/ml, Table 18) was 0 pg/mL and the IL-1β ([2]; Medium, test compound 40 μg/ml, Table 18) was 0 pg/mL. For the same molecule, the IL-10 [3, 16] was 71 pg/mL, the “IL-10 % of control” value [3, 16] was 108% and the IL-10 [3, 17] was 76 pg/mL. For the same molecule, the “IL-10 % of control” value [3, 17] was 114%, the IL-10 [3, 18] was 69 pg/mL and the “IL-10 % of control” value [3, 18] was 104%. For the same molecule, the IL-10 [3, 19] was 95 pg/mL, the “IL-10 % of control” value [3, 19] was 85% and the IL-10 [3, 20] was 100 pg/mL. For the same molecule, the “IL-10 % of control” value [3, 20] was 90%, the IL-10 [3, 21] was 113 pg/mL and the “IL-10 % of control” value [3, 21] was 102%. For the same molecule, the IL-10 ([3]; Medium, test compound 1 μg/ml, Table 17) was 0 pg/mL, the IL-10 ([3]; Medium, test compound 10 μg/ml, Table 17) was 0 pg/mL and the IL-10 ([3]; Medium, test compound 40 μg/ml, Table 17) was 0 pg/mL.
